Experimental data: the NIST ThermoML archive (doi:10.1016/j.fluid.2017.04.001)
± gives the expanded uncertainty stated by the source.

Assay: wn = mass fraction of the nth substance listed
Details: 308.2 K, 101 kPa, Liquid, Cone and plate viscometry

Row | viscosity (w1 = 0.05) | viscosity (w1 = 0.1) | viscosity (w1 = 0.2) | viscosity (w1 = 0.3) | Structure (SMILES)
1 | 0.87 ± 0.02 mPa·s | 0.98 ± 0.03 mPa·s | 1.32 ± 0.05 mPa·s | 1.92 ± 0.09 mPa·s | C[C@H](N)C(=O)[O-].C[N+](C)(C)CCO [2-hydroxy-N,N,N-trimethylethanaminium L-alaninate] + O
2 | 0.89 ± 0.02 mPa·s | 1.06 ± 0.03 mPa·s | 1.49 ± 0.06 mPa·s | 2.2 ± 0.11 mPa·s | C[N+](C)(C)CCO.O=C([O-])[C@@H]1CCCN1 [2-hydroxy-N,N,N-trimethylethanaminium L-prolinate] + O
3 | 0.85 ± 0.02 mPa·s | 0.96 ± 0.03 mPa·s | 1.24 ± 0.04 mPa·s | 1.7 ± 0.07 mPa·s | C[N+](C)(C)CCO.NCC(=O)[O-] [2-hydroxy-N,N,N-trimethylethanaminium glycinate] + O
